For 18 compounds, IC50 results are on record in US7816353B2 (Exelixis, Inc., priority 2003, dated 2010).

pIC50: −log10 of the molar value.

Holding throughout (format): biochemical
The target in one experiment is T1, p70S6K (Homo sapiens, UniProt P23443, T412E).
T1 construct: human p70S6 kinase domain residues 1-421, containing a T412E mutation; made in house
The experiment can be described thus: p70S6 Kinase Assay (Luciferase-Coupled Chemiluminescent Kinase assay, LCCA). Particulars: human p70S6 kinase domain residues 1-421, T412E; 5 μM ATP; read-out: p70S6K IC50. In a few lines: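 Luciferase-coupled chemiluminescence measured percent ATP remaining after the 2 h kinase reaction at ambient temperature, with ATP near the kinase's KM. Ten inhibitor concentrations were tested. IC50 was obtained from a Hill-equation fit.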

The target of another experiment is T2, Akt1 (Homo sapiens, UniProt P31749).
T2 construct: made in house
T2 sequence (P31749 144-480): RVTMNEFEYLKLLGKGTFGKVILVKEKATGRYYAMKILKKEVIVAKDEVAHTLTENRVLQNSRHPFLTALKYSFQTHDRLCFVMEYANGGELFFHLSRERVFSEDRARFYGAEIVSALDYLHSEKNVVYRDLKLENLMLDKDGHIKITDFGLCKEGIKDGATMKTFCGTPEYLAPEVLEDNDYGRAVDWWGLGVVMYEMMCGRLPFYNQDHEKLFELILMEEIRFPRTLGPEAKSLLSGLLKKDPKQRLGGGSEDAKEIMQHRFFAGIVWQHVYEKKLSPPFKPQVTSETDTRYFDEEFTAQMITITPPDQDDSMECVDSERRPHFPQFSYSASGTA
The experiment can be described thus: Akt1 Kinase Assay (Luciferase-Coupled Chemiluminescent Kinase assay, LCCA). The note with it: human Akt1 kinase domain residues R144-A480, activated with PDK1; 1 μM ATP; read-out: Akt-1 IC50. The procedure, abridged:
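Baculovirus-expressed PDK1-activated Akt1 kinase domain (R144-A480), 1.3 nM, with 5 μM crosstide and 1 μM ATP in Tris pH 7.5 with MgCl2/MnCl2, 3 h at ambient temperature. Remaining ATP read by luciferase-luciferin chemiluminescence; 10-point IC50 from four-parameter fit.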

In a further experiment the target is T3, PDK1 (Homo sapiens, UniProt O15530).
T3 construct: human PDK1 kinase domain residues M51-T359; made in house
T3 sequence (O15530 51-359): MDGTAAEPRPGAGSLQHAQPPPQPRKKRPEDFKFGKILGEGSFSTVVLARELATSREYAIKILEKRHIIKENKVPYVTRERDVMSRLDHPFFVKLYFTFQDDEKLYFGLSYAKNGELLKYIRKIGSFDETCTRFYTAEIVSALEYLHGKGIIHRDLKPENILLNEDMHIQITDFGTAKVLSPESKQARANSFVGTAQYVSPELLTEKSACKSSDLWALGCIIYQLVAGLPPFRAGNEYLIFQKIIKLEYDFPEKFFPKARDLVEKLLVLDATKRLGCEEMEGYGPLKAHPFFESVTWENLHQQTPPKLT
The experiment can be described thus: PDK1 Kinase Assay (Luciferase-Coupled Chemiluminescent Kinase assay, LCCA). The note with it: human PDK1 kinase domain residues M51-T359; 0.5 μM ATP; read-out: PDK-1 IC50. The protocol: Kinase activity and compound inhibition are investigated using one or more of the three assay formats described below. The ATP concentrations for each assay are selected to be close to the Michaelis-Menten constant (KM) for each individual kinase. Dose-response experiments are performed at 10 different inhibitor concentrations in a 384-well plate format. The data are fitted to four-parameter equation (2) below; where Y is the observed signal, X is the inhibitor concentration, Min is the background signal in the absence of enzyme (0% enzyme activity), Max is the signal in the absence of inhibitor (100% enzyme activity), IC50 is the inhibitor concentration at 50% enzyme inhibition and H represents the empirical Hill's slope to measure the cooperativity. Typically H is close to unity. Y=Min+(Max−Min)/(1+(X/IC50)^H) Equation (2) p70S6 Kinase Assay
Biochemical activity of PDK1 kinase was assessed using a Luciferase-Coupled Chemiluminescent Kinase assay (LCCA) format. Kinase activity was measured as the percent ATP remaining following the kinase reaction. Remaining ATP was detected by luciferase-luciferin-coupled chemiluminescence. Specifically, the reaction was initiated by mixing test compounds, 0.5 μM ATP, 0.6 μM PDKtide peptide and 6 nM PDK1 (baculovirus expressed human PDK1 kinase domain residues M51-T359) in a 20 uL assay buffer (20 mM Hepes pH 7.5, 1 mM CaCl2, 0.03% CHAPS, 2 mM DTT). The mixture is incubated at ambient temperature for 3 hours after which 20 μL luciferase-luciferin mix is added and the chemiluminescent signal read using a Wallac Victor2 reader. The luciferase-luciferin mix consists of 50 mM HEPES, pH 7.8, 8.5 μg/mL oxalic acid (pH 7.8), 5 (or 50) mM DTT, 0.4% Triton X-100, 0.25 mg/mL coenzyme A, 63 uM AMP, 28 μg/mL luciferin and 40,000 units/mL luciferase.

T1 sequence (P23443 1-421 T412E): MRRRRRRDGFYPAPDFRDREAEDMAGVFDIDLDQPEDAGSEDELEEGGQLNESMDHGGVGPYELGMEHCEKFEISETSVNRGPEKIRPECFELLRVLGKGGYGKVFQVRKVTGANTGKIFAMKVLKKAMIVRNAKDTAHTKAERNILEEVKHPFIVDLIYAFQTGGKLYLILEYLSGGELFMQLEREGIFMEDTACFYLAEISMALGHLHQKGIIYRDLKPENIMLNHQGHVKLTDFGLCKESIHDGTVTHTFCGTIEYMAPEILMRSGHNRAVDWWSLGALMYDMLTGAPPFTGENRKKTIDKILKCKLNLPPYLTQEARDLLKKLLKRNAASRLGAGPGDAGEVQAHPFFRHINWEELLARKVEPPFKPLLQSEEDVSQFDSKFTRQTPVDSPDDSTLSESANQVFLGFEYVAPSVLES

Regarding `CSc1nc(N)nc(SCC(=O)Nc2cc(C(F)(F)F)ccn2)c1C#N` [Example 37, 2-{[2-amino-5-cyano-6-(methylthio)pyrimidin-4-yl]thio}-N-[4-(trifluoromethyl)pyridin-2-yl]acetamide], the pIC50 (commonly the negative decadic logarithm of the IC50, by convention in mol/L) on p70S6K was more than 7.30; on Akt1, less than 5.70; at PDK1, less than 5.70.

Turning to `CSc1cc(COC(=O)Nc2cccc(C(F)(F)F)c2)nc(NCc2ccccc2)n1` [Example 38, {6-(methylthio)-2-[(phenylmethyl)amino]pyrimidin-4-yl}methyl [3-(trifluoromethyl)phenyl]carbamate], the pIC50 at p70S6K is more than 7.30; on Akt1, less than 5.70; on PDK1, less than 5.70.

For `CNc1cc(COC(=O)Nc2cccc(C(F)(F)F)c2)nc(SC)n1` [Example 39, [6-(methylamino)-2-(methylthio)pyrimidin-4-yl]methyl [3-(trifluoromethyl)phenyl]carbamate], the pIC50 on p70S6K was more than 7.30; at Akt1 it was less than 5.70; on PDK1, less than 5.70.

Consider `CSc1nc(COC(=O)Nc2cccc(C(F)(F)F)c2)cc(NCc2ccccc2)n1` [Example 40, {2-(methylthio)-6-[(phenylmethyl)amino]pyrimidin-4-yl}methyl [3-(trifluoromethyl)phenyl]carbamate], for which the pIC50 at p70S6K is more than 7.30; at Akt1 it was less than 5.70; at PDK1, less than 5.70.

As for `CSc1nc(N)nc(SCC(=O)c2ccc3c(c2)NC(=O)CO3)c1C#N` [Example 49, 2-amino-4-(methylthio)-6-{[2-oxo-2-(3-oxo-3,4-dihydro-2H-1,4-benzoxazin-6-yl)ethyl]thio}pyrimidine-5-carbonitrile], the pIC50 on p70S6K is 6.30 to 7.30; at Akt1, less than 5.70; on PDK1 it was less than 5.70.

With `CCOc1nc(N)nc(N[C@@H](CCCN)C(=O)Nc2cccc(C(F)(F)F)c2)c1C#N` [Example 129, N^2-[2-amino-5-cyano-6-(ethyloxy)pyrimidin-4-yl]-N-[3-(trifluoromethyl)phenyl]-L-ornithinamide], the pIC50 at p70S6K, on Akt1 and on PDK1 was less than 5.70 in each case.

Turning to `CSc1nc(N)nc(N(C)[C@@H](C)C(=O)Nc2cc(C(=O)NCCN(C)C)cc(C(F)(F)F)c2)c1C#N` [Example 130, 3-({N-[2-amino5-cyano-6-(methylthio)pyrimidin-4-yl]-N-methyl-L-alanyl}amino)-N-[2-(dimethylamino)ethyl]-5-(trifluoromethyl)benzamide], the pIC50 at p70S6K was more than 7.30; at Akt1, less than 5.70; at PDK1, less than 5.70.

Take `CSc1nc(N)nc(N(C)[C@@H](C)C(=O)Nc2cc(C(=O)NCCCN3CCN(C)CC3)cc(C(F)(F)F)c2)c1C#N` [Example 131, 3-({N-[2-amino-5-cyano-6-(methylthio)pyrimidin-4-yl]-N-methyl-L-alanyl}amino)-N-[3-(4-methylpiperazin-1-yl)propyl]-5-(trifluoromethyl)benzamide]: the pIC50 is more than 7.30 on p70S6K, less than 5.70 on Akt1 and less than 5.70 at PDK1.

As to `CSc1nc(N)nc(N(C)[C@@H](C)C(=O)Nc2cccc(OC(F)(F)F)c2)c1C#N` [Example 132, N~2~-[2-amino-5-cyano-6-(methylthio)pyrimidin-4-yl]-N~2~-methyl-N-{3-[(trifluoromethyl)oxy]phenyl}-L-alaninamide], the values for the pIC50 on p70S6K, at Akt1 and at PDK1 were more than 7.30, less than 5.70 and less than 5.70, respectively.

For `CSc1nc(N)nc(N(C)[C@@H](C)C(=O)Nc2cccc(Br)c2)c1C#N` [Example 133, N~2~-[2-amino-5cyano-6-(methylthio)pyrimidin-4-yl]-N-(3-bromophenyl)-N~2~-methyl-L-alaninamide], the pIC50 was more than 7.30 on p70S6K, less than 5.70 on Akt1 and less than 5.70 on PDK1.

Consider `CSc1nc(N)nc(N(C)[C@@H](C)C(=O)Nc2cc(OC(F)(F)F)ccc2OCCN(C)C)c1C#N` [Example 134, N~2~-[2-amino-5-cyano-6-(methylthio)pyrimidin-4-yl]-N-{2-{[2-(dimethylamino)ethyl]oxy}-5-[(trifluoromethyl)oxy]phenyl}-N~2~-methyl-L-alaninamide], for which the pIC50 was more than 7.30 at p70S6K, less than 5.70 on Akt1 and less than 5.70 at PDK1.

For the compound `CSc1nc(N)nc(N(C)[C@@H](C)C(=O)Nc2cc(C(=O)NCCN3CCOCC3)cc(C(F)(F)F)c2)c1C#N` [Example 135, 3-({N-[2-amino-5-cyano-6-(methylthio)pyrimidin-4-yl]-N-methyl-L-alanyl}amino)-N-(2-morpholin-4-ylethyl)-5-(trifluoromethyl)benzamide], the pIC50 was more than 7.30 at p70S6K, less than 5.70 at Akt1 and less than 5.70 at PDK1.

For the compound `CCOc1nc(N)nc(N(C)[C@@H](CCCCN)C(=O)Nc2cccc(C(F)(F)F)c2)c1C#N` [Example 136, N~2~-[2-amino-5-cyano-6-(ethyloxy)pyrimidin-4-yl]-N~2~-methyl-N-[3-(trifluoromethyl)phenyl]-L-lysinamide], the pIC50 was more than 7.30 at p70S6K, less than 5.70 at Akt1 and less than 5.70 at PDK1.

For the compound `CSc1nc(N)nc(N[C@@H](C)C(=O)Nc2cc(OCCN(C)C)cc(C(F)(F)F)c2)c1C#N` [Example 137, N~2~-[2-amino-5-cyano-6-(methylthio)pyrimidin-4-yl]-N-[3-{[2-(dimethylamino)ethyl]oxy}-5-(trifluoromethyl)phenyl]-L-alaninamide], the results for the negative logarithm of the IC50 (pIC50) at p70S6K, on Akt1 and at PDK1 were more than 7.30, less than 5.70 and less than 5.70, respectively.

`CSc1nc(N)nc(N[C@@H](COC(C)=O)C(=O)Nc2cccc(C(F)(F)F)c2)c1C#N` [Example 138, (2S0-2-{[2-amino-5-cyano-6-(methylthio)pyrimidin-4-yl]amino}-3-oxo-3-{[3-(trifluoromethyl)phenyl]amino}propyl acetate]: the negative-log IC50 (pIC50) at p70S6K was 6.30 to 7.30; on Akt1, less than 5.70; on PDK1 it was less than 5.70.

`COc1nc(N)nc(NNC(=O)Nc2cccc(C(F)(F)F)c2)c1C#N` [Example 140, 2-[2-amino-5-cyano-6-(methyloxy)pyrimidin-4-yl]-N-[3-(trifluoromethyl)phenyl]hydrazinecarboxamide]: the pIC50 on p70S6K was 6.30 to 7.30; at Akt1 it was less than 5.70; at PDK1 it was less than 5.70.

In the case of `CSc1nc(N)nc(N[C@@H](C)C(=O)Nc2cc(C(=O)NO)cc(C(F)(F)F)c2)c1C#N` [Example 141, 3-({N-[2-amino-5-cyano-6-(methylthio)pyrimidin-4yl]-L-alanyl}amino)-N-hydroxy-5-(trifluoromethyl)benzamide], the results for the pIC50 on p70S6K, at Akt1 and on PDK1 were 6.30 to 7.30, less than 5.70 and less than 5.70, respectively.

As to `CSc1nc(N)nc(N[C@@H](CN(C)C)C(=O)Nc2cccc(C(F)(F)F)c2)c1C#N` [Example 142, N~2~-[2-amino-5-cyano-6-(methylthio)pyrimidin-4-yl]-3-(dimethylamino)-N-[3-(trifluoromethyl)phenyl]-L-alaninamide], the pIC50 at p70S6K was 6.30 to 7.30; on Akt1, less than 5.70; on PDK1, less than 5.70.
